In BindingDB's records for doi:10.1021/acs.jmedchem.6b01785 (Chinese Academy of Sciences, 2017) one finds IC50 data, which are given here for nine molecules.

The structures appear in SMILES notation.

The nature of assay [1]: Inhibition of DOT1L in human MV4-11 cells assessed as reduction in cell viability after 72 hrs by alamar blue assay.
The nature of assay [2]: Inhibition of DOT1L in human THP-1 cells assessed as reduction in cell viability after 72 hrs by alamar blue assay. (Resazurin is reduced to fluorescent resorufin, in cell work by metabolically active cells.)
Assay [3] is described as follows: Inhibition of DOT1L in human KOPN8 cells assessed as reduction in cell viability after 72 hrs by alamar blue assay.

Broadly, the IC50 is the midpoint of a concentration-inhibition curve. As to `Cc1ccc(-c2nn3c(Cn4cnc5ccccc54)nnc3s2)cc1C`, the IC50 in assay [1] was found to be 64 µM.
In the case of `Fc1cccc(-c2nn3c(Cn4nnc5ccccc54)nnc3s2)c1`, the IC50 in assay [2] worked out at 55.8 µM; in assay [3], 28.1 µM; in assay [1] it was 21.9 µM.
Regarding `CC(C)(C)c1ccc(-c2nn3c(Cn4nnc5ccccc54)nnc3s2)cc1`, the 50% inhibitory concentration (IC50) in assay [1] amounted to 13.1 µM.
Take `Brc1cccc(-c2nn3c(Cn4cnc5ccccc54)nnc3s2)c1`: the IC50 in assay [1] is 26.8 µM.
For the molecule `c1ccc(Cc2nn3c(Cn4nnc5ccccc54)nnc3s2)cc1` [3-(1-benzotriazolylmethyl)-6-(phenylmethyl)-[1,2,4]triazolo[3,4-b][1,3,4]thiadiazole], in assay [1], the IC50 is 48.8 µM.
Turning to `COc1cccc(-c2nn3c(Cn4nnc5ccccc54)nnc3s2)c1`, the IC50 in assay [1] is 64.2 µM.
As for `c1ccc2c(c1)nnn2Cc1nnc2sc(-c3ccc4c(c3)OCCO4)nn12` [1-{[6-(2,3-dihydro-1,4-benzodioxin-6-yl)[1,2,4]triazolo[3,4-b][1,3,4]thiadiazol-3-yl]methyl}-1H-1,2,3-benzotriazole], the IC50 in assay [1] was determined as 40.7 µM.
`c1ccc2c(c1)nnn2Cc1nnc2sc(-c3ccc4c(c3)OCO4)nn12`: the IC50 in assay [1] worked out at 6.75 µM.
For the molecule `Fc1ccc(-c2nn3c(Cn4nnc5ccccc54)nnc3s2)cc1`, the IC50 in assay [1] turned out to be 8 µM.
